Measurements from patent publication US8399451B2, “Heterocyclic compounds” (Bristol-Myers Squibb Company, priority 2009, dated 2013).
Where two headings read alike, the source gives them in different places. One block for each compound: values may come before it.

Assays:
S1P3 = molecular target: T1, S1P3 (Homo sapiens, UniProt Q99500); test: Receptor [35S] GTPγS Binding Assay, membranes from EDG3-Ga15-bla HEK293T cells; assay type: biochemical; conditions: * detection limit 31,000 nM or 62,000 nM
T1 construct: expressed in transfected cells; host or cells: EDG3-Ga15-bla HEK293T cells
Method: (§1) Receptor [35S] GTPγS Binding Assays
(§2) Membranes prepared from S1P1/CHO cells or EDG3-Ga15-bla HEK293T cells were added to the compound plate (40 μl/well, final protein 3 μg/well) with MULTIDROP®. [^35S]GTP (1250 Ci/mmol, Perkin Elmer) was diluted in assay buffer: 20 mM HEPES, pH7.5, 10 mM MgCl2, 150 mM NaCl, 1 mM EGTA, 1 mM DTT, 10 μM GDP, 0.1% fatty acid free BSA, and 10 μg/ml Saponin to 0.4 nM. 40 μl of the [^35S] GTP solution was added to the compound plate with a final concentration of 0.2 nM. […] At the end of incubation, all the mixtures in the compound plate were transferred to a 384 well FB filter plates via GPCR robot system. […] 30 μl of MicroScint 20 scintillation fluid was added to each well for counting at Packard TOPCOUNT®.

S1P1 [1] = molecular target: T2, S1P1 (Homo sapiens, UniProt P21453); test: Receptor [35S] GTPγS Binding Assay, membranes from S1P1/CHO cells; assay type: biochemical; set-up: expressed in transfected cells; host or cells: S1P1/CHO cells; conditions: for S1P3/S1P1 GTPγS (ratio of S1P3 GTPγS EC50 to S1P1 GTPγS EC50): selectivity ratio calculated from Table B, * may be greater than reported value due to S1P3 assay limits
Method: as §1, §2

S1P1 [2] = molecular target: T2, S1P1; test: S1P1 Binding Assay (33P-S1P radioligand competition, membranes); set-up: expressed in transfected cells; host or cells: CHO cells; conditions: membranes from CHO cells expressing human S1P1; 0.03 nM 33P-S1P; rounded to two digits
Method: Membranes were prepared from CHO cells expressing human S1P1. Cells were dissociated in buffer containing 20 mM HEPES, pH 7.5, 50 mM NaCl, 2 mM EDTA and Protease Inhibitor cocktail (Roche), and disrupted on ice using the Polytron homogenizer. The homogenate was centrifuged at 20,000 rpm (48,000 G) and the supernatant was discarded. The membrane pellets were resuspended in buffer containing 50 mM HEPES, pH 7.5, 100 mM NaCl, 1 mM MgCl2, 2 mM EDTA and stored in aliquots at −80° C. after protein concentration determination.
Binding was performed for 45 minutes at room temperature, terminated by collecting the membranes onto GF/B filter plates, and radioactivity was measured by TOPCOUNT®. The competition data of the test compounds over a range of concentrations was plotted as percentage inhibition of radioligand specific binding.
The results in Table A were rounded to two digits.

circulating lymphocytes = test: Blood Lymphocyte Reduction Assay (BLR) in Rodents; assay type: in vivo; conditions: Lewis rats, oral, vs vehicle (PEG300)
Method: Blood Lymphocyte Reduction Assay (BLR) in Rodents
Lewis rats were dosed orally with test article (as a solution or suspension in the vehicle) or vehicle alone (polyethylene glycol 300, “PEG300”). Blood was drawn at 4 hr by retro-orbital bleeding. Blood lymphocyte counts were determined on an ADVIA® 120 Hematology Analyzer (Siemens Healthcare Diagnostics). The results were measured as a reduction in the percentage of circulating lymphocytes as compared to the vehicle treated group at the 4 hr measurement.

[3] = membranes from S1P1/CHO cells, read-out: S1P1 GTPγS EC50

T2 sequence (P21453 whole entry): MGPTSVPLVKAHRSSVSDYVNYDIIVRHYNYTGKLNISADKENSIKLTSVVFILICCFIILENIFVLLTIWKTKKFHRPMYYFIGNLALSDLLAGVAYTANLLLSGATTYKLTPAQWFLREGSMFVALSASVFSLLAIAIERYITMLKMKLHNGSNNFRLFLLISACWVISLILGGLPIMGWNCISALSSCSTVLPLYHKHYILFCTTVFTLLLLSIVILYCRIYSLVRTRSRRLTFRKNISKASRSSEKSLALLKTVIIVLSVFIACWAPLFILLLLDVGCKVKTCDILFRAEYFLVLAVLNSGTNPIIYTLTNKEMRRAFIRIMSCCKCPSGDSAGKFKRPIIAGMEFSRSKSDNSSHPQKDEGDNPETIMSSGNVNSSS
T1 sequence (Q99500 whole entry): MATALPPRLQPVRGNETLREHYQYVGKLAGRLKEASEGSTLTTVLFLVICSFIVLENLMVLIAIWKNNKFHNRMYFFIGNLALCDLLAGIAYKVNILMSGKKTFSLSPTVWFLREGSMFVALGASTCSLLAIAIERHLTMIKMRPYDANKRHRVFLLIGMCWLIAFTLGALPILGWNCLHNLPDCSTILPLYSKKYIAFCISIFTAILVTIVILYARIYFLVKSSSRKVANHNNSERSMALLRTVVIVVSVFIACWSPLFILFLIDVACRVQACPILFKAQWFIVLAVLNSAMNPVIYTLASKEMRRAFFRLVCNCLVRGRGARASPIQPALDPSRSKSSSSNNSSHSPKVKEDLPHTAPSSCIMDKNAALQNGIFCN

EC50 (S1P3): 1200 nM
EC50 (S1P1 [1]; [3]): 320 nM
S1P3/S1P1 GTPγS (ratio of S1P3 GTPγS EC50 to S1P1 GTPγS EC50) (S1P1 [1]): 3.8
IC50 (S1P1 [2]): 28 nM
SMILES: CC(O)(CN1CCC[C@H](C(=O)O)C1)c1ccc(-c2noc(-c3onc(-c4ccccc4)c3C(F)(F)F)n2)cc1 (stereo partly drawn) [Example 17, (3S)-1-(2-Hydroxy-2-(4-(5-(3-phenyl-4-(trifluoromethyl)isoxazol-5-yl)-1,2,4-oxadiazol-3-yl)phenyl)propyl)piperidine-3-carboxylic acid]

SMILES: O=C(O)C[C@H]1CCCN(C[C@@H](O)c2ccc(-c3noc(-c4onc(-c5ccccc5)c4C(F)(F)F)n3)cc2)C1 [Example 18, 2-((3R)-1-(2-Hydroxy-2-(4-(5-(3-phenyl-4-(trifluoromethyl)isoxazol-5-yl)-1,2,4-oxadiazol-3-yl)phenyl)ethyl)piperidin-3-yl)acetic acid]
% Reduction in Lymphocytes at 4 hr. (circulating lymphocytes; dose 1 mg/kg): 82%

EC50 (S1P3): > 62000 nM
EC50 (S1P1 [1]; read-out: S1P1 GTPγS EC50 value): 31000 nM
S1P3/S1P1 GTPγS (ratio of S1P3 GTPγS EC50 to S1P1 GTPγS EC50) (S1P1 [1]): 2.3
S1P3/S1P1 GTPγS (ratio of S1P3 GTPγS EC50 to S1P1 GTPγS EC50) (S1P1 [1]; listed as Comp. 119): 2.3*
IC50 (S1P1 [2]): 420 nM
SMILES: CCCc1c(-c2nc(-c3ccc(CCN4CCC[C@H](C(=O)O)C4)cc3)no2)noc1-c1ccccc1 [Comparative Compound 119, (S)-1-(4-(5-(5-Phenyl-4-propylisoxazol-3-yl)-1,2,4-oxadiazol-3-yl)phenethyl)piperidine-3-carboxylic acid, reference compound]

EC50 (S1P3): 3500 nM
EC50 (S1P1 [1]; [3]): 410 nM
S1P3/S1P1 GTPγS (ratio of S1P3 GTPγS EC50 to S1P1 GTPγS EC50) (S1P1 [1]): 8.6
IC50 (S1P1 [2]): 43 nM
SMILES: CCCc1c(-c2nc(-c3ccc(C(O)CN4CCCC(C(=O)N(CC)CC)C4)cc3)no2)noc1-c1ccccc1 (stereo not drawn) [Example 24, N,N-Diethyl-1-(2-hydroxy-2-(4-(5-(5-phenyl-4-propylisoxazol-3-yl)-1,2,4-oxadiazol-3-yl)phenyl)ethyl)piperidine-3-carboxamide]

SMILES: O=C(O)[C@H]1CCCN(C[C@@H](O)c2ccc(-c3noc(-c4onc(-c5ccccc5)c4C(F)(F)F)n3)cc2)C1 [Example 14, (S)-1-((S)-2-Hydroxy-2-(4-(5-(3-phenyl-4-(trifluoromethyl)isoxazol-5-yl)-1,2,4-oxadiazol-3-yl)phenyl)ethyl)piperidine-3-carboxylic acid]
% Reduction in Lymphocytes at 4 hr. (circulating lymphocytes; dose 3 mg/kg): 83%

IC50 (S1P1 [2]): 4.8 nM
SMILES: CCCc1c(-c2nc(-c3ccc(C(O)CN4CCOC(C(=O)O)C4)cc3)no2)noc1-c1ccccc1 (stereo not drawn) [Example 11, 4-(2-Hydroxy-2-(4-(5-(5-phenyl-4-propylisoxazol-3-yl)-1,2,4-oxadiazol-3-yl)phenyl)ethyl)morpholine-2-carboxylic acid]

IC50 (S1P1 [2]): 0.45 nM
SMILES: CCCc1c(-c2nc(-c3ccc(C(O)CN4CC(C(=O)O)C4)cc3)no2)noc1-c1ccccc1 (stereo not drawn) [Example 1, 1-(2-Hydroxy-2-(4-(5-(5-phenyl-4-propylisoxazol-3-yl)-1,2,4-oxadiazol-3-yl)phenyl)ethyl)azetidine-3-carboxylic acid]

IC50 (S1P1 [2]): 2.2 nM
SMILES: CCCc1c(-c2nc(-c3ccc(C(O)CN4CCCCC4C(=O)O)cc3)no2)noc1-c1ccccc1 (stereo not drawn) [Example 2, 1-(2-Hydroxy-2-(4-(5-(5-phenyl-4-propylisoxazol-3-yl)-1,2,4-oxadiazol-3-yl)phenyl)ethyl)piperidine-2-carboxylic acid]

SMILES: CCCc1c(-c2nc(-c3ccc(C(O)CN4CCC[C@H](C(=O)O)C4)cc3)no2)noc1-c1ccccc1 (stereo partly drawn) [Example 4, (3S)-1-(2-Hydroxy-2-(4-(5-(5-phenyl-4-propylisoxazol-3-yl)-1,2,4-oxadiazol-3-yl)phenyl)ethyl)piperidine-3-carboxylic acid]
% Reduction in Lymphocytes at 4 hr. (circulating lymphocytes; dose 3 mg/kg): 71%

SMILES: O=C(O)CCC1CCCN(CC(O)c2ccc(-c3noc(-c4onc(-c5ccccc5)c4C(F)(F)F)n3)cc2)C1 (stereo not drawn) [Example 40, 3-(1-(2-Hydroxy-2-(4-(5-(3-phenyl-4-(trifluoromethyl)isoxazol-5-yl)-1,2,4-oxadiazol-3-yl)phenyl)ethyl)piperidin-3-yl)propanoic acid]
% Reduction in Lymphocytes at 4 hr. (circulating lymphocytes; dose 5.5 mg/kg): 80%

IC50 (S1P1 [2]): 14 nM
SMILES: O=C(O)[C@H]1CCCN(CC(O)c2ccc(-c3noc(-c4onc(-c5ccccc5)c4C(F)(F)F)n3)c(C(F)(F)F)c2)C1 (stereo partly drawn) [Example 26, (3S)-1-(2-Hydroxy-2-(4-(5-(3-phenyl-4-(trifluoromethyl)isoxazol-5-yl)-1,2,4-oxadiazol-3-yl)-3-(trifluoromethyl)phenyl)ethyl)piperidine-3-carboxylic acid]
